Results: PubChem BioAssay (NCI)
Where “and” joins values, the source holds several entries; their conditions need not be identical. Equal values may be shown once.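 Five concentrations, 48 hours, 96-well plates. GI50 marks 50% less growth. TGI: total growth inhibition.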

Columns and labels:
Assay in all cases: NCI-60 cell line screen, 48 h
[1] = system: M14 melanoma
[2] = system: 786-0 renal
[3] = system: LXFL 529 NSCLC
[4] = system: MDA-MB-435
[5] = system: CAKI-1 renal
[6] = system: MOLT-4 leukemia
[7] = system: TK-10 renal
[8] = system: HS 578T breast
[9] = system: M19-MEL melanoma
[10] = system: BT-549 breast
[11] = system: RXF 393 renal
[12] = system: SNB-78 CNS
[13] = system: HT29 colon
[14] = system: DU-145 prostate
[15] = system: MCF7 breast
[16] = system: SW-620 colon
[17] = system: PC-3 prostate
[18] = system: RXF-631 renal
[19] = system: COLO 205 colon
[20] = system: HCT-116 colon
[21] = system: SN12C renal
[22] = system: HCC-2998 colon
[23] = system: SNB-75 CNS
[24] = system: SK-MEL-28 melanoma
[25] = system: HOP-18 NSCLC
[26] = system: U251 CNS
[27] = system: T-47D breast
[28] = system: SK-OV-3 ovarian
[29] = system: LOX IMVI melanoma
[30] = system: DLD-1 colon
[31] = system: HL-60(TB) leukemia
[32] = system: DMS 114 small cell lung
[33] = system: ACHN renal
[34] = system: HCT-15 colon
[35] = system: OVCAR-5 ovarian
[36] = system: IGROV1 ovarian
[37] = system: HOP-62 NSCLC
[38] = system: CCRF-CEM leukemia
[39] = system: UO-31 renal
[40] = system: UACC-257 melanoma
[41] = system: OVCAR-3 ovarian
[42] = system: OVCAR-4 ovarian
[43] = system: UACC-62 melanoma
[44] = system: NCI-H23 lung
[45] = system: EKVX NSCLC
[46] = system: K-562 leukemia
[47] = system: SK-MEL-5 melanoma
[48] = system: MALME-3M melanoma
[49] = system: SF-295 CNS
[50] = system: SNB-19 CNS
[51] = system: NCI-H522 lung
[52] = system: HOP-92 NSCLC
[53] = system: MDA-MB-231 breast
[54] = system: SK-MEL-2 melanoma
[55] = system: OVCAR-8 ovarian
[56] = system: SF-268 CNS
[57] = system: KM12 colon
[58] = system: NCI-H460 lung
[59] = system: RPMI-8226 leukemia
[60] = system: A498 renal
[61] = system: SR leukemia
[62] = system: KM20L2 colon
[63] = system: DMS 273 small cell lung
[64] = system: SF-539 CNS
[65] = system: A549 NSCLC
[66] = system: NCI-H226 lung

For `CCCCNCCCNCCCNC(=O)c1csc(-c2csc(CCNC(=O)C(NC(=O)C(C)C(O)C(C)NC(=O)C(NC(=O)c3nc(C(CC(N)=O)NCC(N)C(N)=O)nc(N)c3C)C(OC3OC(CO)C(O)C(O)C3OC3OC(CO)C(O)C(OC(N)=O)C3O)c3cnc[nH]3)C(C)O)n2)n1` (stereo not drawn), the GI50 [1] was 34.3 µM, the TGI [1] was 50 µM and 15.9 µM and the GI50 [2] was 1.46 µM. The TGI [2] was 50 µM and 5.24 µM, the TGI [3] was over 100 µM and the TGI [4] was 50 µM. The TGI [5] was 50 µM and 17 µM, the GI50 [6] was 1.22 µM and the TGI [6] was 50 µM and > 27.1 µM. For the same compound, the GI50 [7] was over 50 µM, the TGI [7] was > 50 µM and 58.2 µM and the TGI [8] was 50 µM. The TGI [9] was over 100 µM, the TGI [10] was over 50 µM and the GI50 [11] was 0.443 µM and 0.171 µM. The TGI [11] was 2.66 µM and 1.15 µM, the TGI [12] was over 100 µM and the GI50 [13] was 1.73 µM. For the same compound, the TGI [13] was 50 µM and > 100 µM, the TGI [14] was 50 µM and the TGI [15] was 37.7 µM. For the same compound, the GI50 [16] was 11 µM, the TGI [16] was 50 µM and > 100 µM and the TGI [17] was 50 µM. For the same compound, the TGI [18] was over 100 µM, the GI50 [19] was 26.6 µM and the TGI [19] was 50 µM and > 89.1 µM. For the same compound, the GI50 [20] was 0.427 µM, the TGI [20] was 50 µM and 14.2 µM and the GI50 [21] was 1.13 µM. For the same compound, the TGI [21] was 50 µM and 8.53 µM, the GI50 [22] was 15.9 µM and the TGI [22] was 50 µM and > 100 µM. For the same compound, the GI50 [23] was 0.0257 µM, the TGI [23] was 0.716 µM and 3.37 µM and the GI50 [24] was over 50 µM. It also gave a TGI [24] of over 75.7 µM, a TGI [25] of over 100 µM and a GI50 [26] of 0.807 µM. For the same compound, the TGI [26] was 50 µM and 8.07 µM, the TGI [27] was 50 µM and the GI50 [28] was 9.49 µM. For the same compound, the TGI [28] was 50 µM and 36.2 µM, the GI50 [29] was 0.194 µM and the TGI [29] was 7.15 µM and 6.49 µM. For the same compound, the TGI [30] was over 100 µM, the GI50 [31] was 3.4 µM and the TGI [31] was 50 µM and > 100 µM. The TGI [32] was 8.73 µM, the GI50 [33] was 0.0491 µM and the GI50 [34] was 2.12 µM. For the same compound, the GI50 [35] was 5.86 µM, the TGI [35] was 50 µM and > 44.5 µM and the GI50 [36] was 20.9 µM. For the same compound, the TGI [36] was 50 µM and > 84 µM, the GI50 [37] was 0.109 µM and the TGI [37] was 8.65 µM. For the same compound, the GI50 [38] was 6.4 µM, the TGI [38] was 50 µM and > 100 µM and the TGI [39] was 15.8 µM and 3.81 µM. For the same compound, the GI50 [40] was 0.106 µM, the GI50 [41] was 30.3 µM and the TGI [41] was 50 µM and 22.9 µM. The GI50 [42] was 0.459 µM, the GI50 [43] was 0.68 µM and the TGI [43] was 11.8 µM and 4.8 µM. For the same compound, the GI50 [44] was 0.269 µM, the TGI [44] was 7.42 µM and 2.2 µM and the GI50 [45] was over 50 µM. The TGI [45] was > 50 µM and 61.8 µM, the GI50 [46] was 19.6 µM and the TGI [46] was 50 µM and > 100 µM. For the same compound, the GI50 [47] was 3.14 µM, the TGI [47] was 50 µM and 11.6 µM and the GI50 [48] was 0.697 µM. The TGI [48] was 16.9 µM, the TGI [49] was 1.76 µM and the TGI [50] was 50 µM and > 65.7 µM. The TGI [51] was 7.96 µM and 10.1 µM, the TGI [52] was 1.79 µM and the TGI [53] was 50 µM. The TGI [54] was 17.3 µM, the GI50 [55] was 0.908 µM and the TGI [55] was 12.1 µM and 40.4 µM. The GI50 [56] was 3.16 µM, the TGI [56] was 50 µM and 15.2 µM and the GI50 [57] was over 50 µM. For the same compound, the TGI [57] was over 100 µM, the GI50 [58] was 0.0396 µM and the TGI [58] was 5.22 µM and 13 µM. For the same compound, the GI50 [59] was 19.7 µM, the TGI [59] was over 100 µM and the GI50 [60] was 1.25 µM. The TGI [60] was 50 µM and 28.1 µM, the GI50 [61] was 7.28 µM and the TGI [61] was 50 µM and > 100 µM. The TGI [62] was over 100 µM, the TGI [63] was 2.97 µM and the GI50 [64] was 0.0449 µM. For the same compound, the TGI [64] was 0.357 µM and 0.235 µM, the GI50 [65] was 1.13 µM and the TGI [65] was 10.3 µM and 22.9 µM. For the same compound, the GI50 [66] was 0.477 µM.
